Test results as given in ChEMBL document CHEMBL3046513, “Synthesis, characterization, and biological evaluation of some N-aryl hydrazones and their 2,3-disubstituted-4-thiazolidinone derivatives” (Med Chem Res, 2013).
In brackets after ≈: the same amount, converted by molar mass.

Columns and labels:
Assay type in all cases: functional
Candida albicans = assay: Antifungal activity against Candida albicans assessed as growth inhibition by serial plate dilution method
Bacillus cereus = assay: Antibacterial activity against Bacillus cereus assessed as growth inhibition by serial plate dilution method
Pseudomonas aeruginosa = assay: Antibacterial activity against Pseudomonas aeruginosa ATCC 27853 assessed as growth inhibition by serial plate dilution method
Staphylococcus aureus = assay: Antibacterial activity against Staphylococcus aureus ATCC 25923 assessed as growth inhibition by serial plate dilution method
Escherichia coli = assay: Antibacterial activity against Escherichia coli ATCC 25922 assessed as growth inhibition by serial plate dilution method
Mus musculus [1] = assay: Analgesic activity in Mus musculus […] albino (mouse) assessed as time taken to tail withdrawl at 100 mg/kg, po administered through intragastric tube after 180 min by tail flick test (reference value: 1.363 +/- 0.1297 secs)
Mus musculus [2] = assay: Analgesic activity in Mus musculus […] albino (mouse) assessed as time taken to tail withdrawl at 100 mg/kg, po administered through intragastric tube after 120 min by tail flick test (reference value: 1.363 +/- 0.1297 secs)
Mus musculus [3] = assay: Analgesic activity in Mus musculus […] albino (mouse) assessed as time taken to tail withdrawl at 100 mg/kg, po administered through intragastric tube after 60 min by tail flick test (reference value: 1.363 +/- 0.1297 secs)
Rattus norvegicus [4] = assay: Anti-inflammatory activity in Rattus norvegicus (rat) assessed as decrease in carrageenan-induced paw edema at 100 mg/kg, po administered 30 min prior to carrageenan challenge measured after 180 min (reference value: 2.275 +/- 0.1181 mm)
Rattus norvegicus [5] = assay: Anti-inflammatory activity in Rattus norvegicus (rat) assessed as decrease in carrageenan-induced paw edema at 100 mg/kg, po administered 30 min prior to carrageenan challenge measured after 120 min (reference value: 2.375 +/- 0.1436 mm)
Rattus norvegicus [6] = assay: Anti-inflammatory activity in Rattus norvegicus (rat) assessed as decrease in carrageenan-induced paw edema at 100 mg/kg, po administered 30 min prior to carrageenan challenge measured after 60 min (reference value: 2.175 +/- 0.1797 mm)
[7] = tested on: Radical scavenging activity; assay: Antioxidant activity assessed as inhibition of DPPH radical generation at 800 ug/mL after 20 min by spectrophotometric analysis relative to control
[8] = tested on: Radical scavenging activity; assay: Antioxidant activity assessed as inhibition of DPPH radical generation at 400 ug/mL after 20 min by spectrophotometric analysis relative to control
[9] = tested on: Radical scavenging activity; assay: Antioxidant activity assessed as inhibition of DPPH radical generation at 200 ug/mL after 20 min by spectrophotometric analysis relative to control

Row | Compound | MIC (Candida albicans) | MIC (Bacillus cereus) | MIC (Pseudomonas aeruginosa) | MIC (Staphylococcus aureus) | MIC (Escherichia coli) | Time (Mus musculus [1]) | Time (Mus musculus [2]) | Time (Mus musculus [3]) | Activity (Rattus norvegicus [4]) | Activity (Rattus norvegicus [5]) | Activity (Rattus norvegicus [6]) | inhibition [7] | inhibition [8] | inhibition [9]
1 | COc1ccc(Br)c(C(=O)NN2C(=O)CSC2C2=C(Cl)c3ccccc3C(c3ccc(Cl)c(Cl)c3)C2)c1 (stereo not given) | 6.25 µg/mL (≈ 9.78 µM) | 12.5 µg/mL (≈ 19.6 µM) | 6.25 µg/mL (≈ 9.78 µM) | 6.25 µg/mL (≈ 9.78 µM) | 12.5 µg/mL (≈ 19.6 µM) | 2.338 s | 3.388 s | 3.463 s | 2.025 mm | 2.175 mm | 2.025 mm |  |  | 
2 | COc1ccc(C2SCC(=O)N2NC(=O)c2cc(OC)ccc2Br)c(OC)c1 (stereo not given) | 3.12 µg/mL (≈ 6.69 µM) | 6.25 µg/mL (≈ 13.4 µM) | 6.25 µg/mL (≈ 13.4 µM) | 12.5 µg/mL (≈ 26.7 µM) | 12.5 µg/mL (≈ 26.7 µM) | 2.388 s | 3.075 s | 3.175 s | 1.9 mm | 2.15 mm | 2.125 mm | 71% | 33.2% | 15.9%
3 | COc1ccc(Br)c(C(=O)NN2C(=O)CSC2c2ccc(Cl)cc2)c1 (stereo not given) | 12.5 µg/mL (≈ 28.3 µM) | 12.5 µg/mL (≈ 28.3 µM) | 3.12 µg/mL (≈ 7.07 µM) | 12.5 µg/mL (≈ 28.3 µM) | 12.5 µg/mL (≈ 28.3 µM) | 2.463 s | 2.788 s | 2.613 s | 2.25 mm | 2.25 mm | 2.15 mm | 58.2% | 58.2% | 57.5%
4 | COc1ccc(Br)c(C(=O)NN2C(=O)CSC2c2ccc(F)cc2)c1 (stereo not given) | 6.25 µg/mL (≈ 14.7 µM) | 6.25 µg/mL (≈ 14.7 µM) | 12.5 µg/mL (≈ 29.4 µM) | 12.5 µg/mL (≈ 29.4 µM) | 6.25 µg/mL (≈ 14.7 µM) | 3.241 s | 3.421 s | 2.923 s | 2.2 mm | 2.05 mm | 2 mm | 57.1% | 51% | 37.8%
5 | COc1ccc(Br)c(C(=O)NN2C(=O)CSC2c2ccccc2Cl)c1 (stereo not given) | 6.25 µg/mL (≈ 14.1 µM) | 6.25 µg/mL (≈ 14.1 µM) | 3.12 µg/mL (≈ 7.07 µM) | 6.25 µg/mL (≈ 14.1 µM) | 12.5 µg/mL (≈ 28.3 µM) | 2.5 s | 2.125 s | 1.963 s | 2.075 mm | 1.975 mm | 1.85 mm | 72.9% | 65.9% | 59.3%
6 | O=C(O)Cc1ccccc1Nc1c(Cl)cccc1Cl [DICLOFENAC] |  |  |  |  |  |  |  |  | 0.625 mm | 0.625 mm | 0.6 mm |  |  | 
7 | COc1ccc(Br)c(C(=O)NN2C(=O)CSC2c2cccc3cc(OC)ccc23)c1 (stereo not given) | 6.25 µg/mL (≈ 12.8 µM) | 12.5 µg/mL (≈ 25.6 µM) | 6.25 µg/mL (≈ 12.8 µM) | 12.5 µg/mL (≈ 25.6 µM) | 6.25 µg/mL (≈ 12.8 µM) | 2.53 s | 2.214 s | 1.954 s | 1.98 mm | 1.89 mm | 1.515 mm | 58.3% | 52.4% | 38.3%
8 | COc1ccc(/C=N\NC(=O)c2cc(OC)ccc2Br)c(OC)c1 | 6.25 µg/mL (≈ 15.9 µM) | 12.5 µg/mL (≈ 31.8 µM) | 6.25 µg/mL (≈ 15.9 µM) | 12.5 µg/mL (≈ 31.8 µM) | 6.25 µg/mL (≈ 15.9 µM) |  |  |  |  |  |  |  |  | 
9 | COc1ccc(Br)c(C(=O)N/N=C\c2ccccc2O)c1 | 6.25 µg/mL (≈ 17.9 µM) | 12.5 µg/mL (≈ 35.8 µM) | 6.25 µg/mL (≈ 17.9 µM) | 12.5 µg/mL (≈ 35.8 µM) | 6.25 µg/mL (≈ 17.9 µM) |  |  |  |  |  |  |  |  | 
10 | COc1ccc(Br)c(C(=O)N/N=C\c2ccc(Cl)cc2)c1 | 3.12 µg/mL (≈ 8.5 µM) | 12.5 µg/mL (≈ 34 µM) | 3.12 µg/mL (≈ 8.5 µM) | 6.25 µg/mL (≈ 17 µM) | 6.25 µg/mL (≈ 17 µM) |  |  |  |  |  |  |  |  | 
11 | COc1ccc(Br)c(C(=O)N/N=C\c2cccc3cc(OC)ccc23)c1 | 12.5 µg/mL (≈ 30.2 µM) | 6.25 µg/mL (≈ 15.1 µM) | 12.5 µg/mL (≈ 30.2 µM) | 6.25 µg/mL (≈ 15.1 µM) | 12.5 µg/mL (≈ 30.2 µM) |  |  |  |  |  |  |  |  | 
12 | COc1ccc(Br)c(C(=O)N/N=C/C2=C(Cl)c3ccccc3C(c3ccc(Cl)c(Cl)c3)C2)c1 (stereo not given) | 6.25 µg/mL (≈ 11.1 µM) | 12.5 µg/mL (≈ 22.1 µM) | 6.25 µg/mL (≈ 11.1 µM) | 12.5 µg/mL (≈ 22.1 µM) | 12.5 µg/mL (≈ 22.1 µM) |  |  |  |  |  |  |  |  | 
13 | COc1ccc(Br)c(C(=O)N/N=C\c2ccccc2OC)c1 | 6.25 µg/mL (≈ 17.2 µM) | 12.5 µg/mL (≈ 34.4 µM) | 3.12 µg/mL (≈ 8.6 µM) | 6.25 µg/mL (≈ 17.2 µM) | 12.5 µg/mL (≈ 34.4 µM) |  |  |  |  |  |  |  |  | 
14 | COc1ccc(/C=N\NC(=O)c2cc(OC)ccc2Br)cc1 | 6.25 µg/mL (≈ 17.2 µM) | 12.5 µg/mL (≈ 34.4 µM) | 3.12 µg/mL (≈ 8.6 µM) | 12.5 µg/mL (≈ 34.4 µM) | 12.5 µg/mL (≈ 34.4 µM) |  |  |  |  |  |  |  |  | 
15 | CC1(C)S[C@@H]2[C@H](NC(=O)Cc3ccccc3)C(=O)N2[C@H]1C(=O)O [PENICILLIN G] |  | 0.12 µg/mL (≈ 0.359 µM) | 0.12 µg/mL (≈ 0.359 µM) | 0.12 µg/mL (≈ 0.359 µM) | 0.12 µg/mL (≈ 0.359 µM) |  |  |  |  |  |  |  |  | 
16 | O=C1O[C@H]([C@@H](O)CO)C(O)=C1O |  |  |  |  |  |  |  |  |  |  |  | 96% | 95% | 87.6%
17 | CC(C)=CCN1CC[C@]2(C)c3cc(O)ccc3C[C@H]1[C@H]2C [(+)-PENTAZOCINE] |  |  |  |  |  | 7.025 s | 6.863 s | 7.075 s |  |  |  |  |  | 
18 | COc1ccc(Br)c(C(=O)N/N=C\c2ccc([N+](=O)[O-])cc2)c1 | 3.12 µg/mL (≈ 8.26 µM) | 6.25 µg/mL (≈ 16.5 µM) | 6.25 µg/mL (≈ 16.5 µM) | 12.5 µg/mL (≈ 33.1 µM) | 6.25 µg/mL (≈ 16.5 µM) |  |  |  |  |  |  |  |  | 
19 | COc1ccc(Br)c(C(=O)N/N=C\c2ccc(F)cc2)c1 | 12.5 µg/mL (≈ 35.6 µM) | 6.25 µg/mL (≈ 17.8 µM) | 6.25 µg/mL (≈ 17.8 µM) | 6.25 µg/mL (≈ 17.8 µM) | 12.5 µg/mL (≈ 35.6 µM) |  |  |  |  |  |  |  |  | 
20 | COc1ccc(Br)c(C(=O)N/N=C\c2cccnc2)c1 | 3.12 µg/mL (≈ 9.35 µM) | 6.25 µg/mL (≈ 18.7 µM) | 6.25 µg/mL (≈ 18.7 µM) | 6.25 µg/mL (≈ 18.7 µM) | 6.25 µg/mL (≈ 18.7 µM) |  |  |  |  |  |  |  |  | 
21 | COc1ccc(Br)c(C(=O)N/N=C\c2ccc(-c3ccccc3)cc2)c1 | 12.5 µg/mL (≈ 30.5 µM) | 25 µg/mL (≈ 61.1 µM) | 6.25 µg/mL (≈ 15.3 µM) | 25 µg/mL (≈ 61.1 µM) | 25 µg/mL (≈ 61.1 µM) |  |  |  |  |  |  |  |  | 
22 | COc1ccc(Br)c(C(=O)N/N=C\c2ccc(O)cc2)c1 | 3.12 µg/mL (≈ 8.95 µM) | 6.25 µg/mL (≈ 17.9 µM) | 6.25 µg/mL (≈ 17.9 µM) | 12.5 µg/mL (≈ 35.8 µM) | 12.5 µg/mL (≈ 35.8 µM) |  |  |  |  |  |  |  |  | 
23 | COc1ccc(Br)c(C(=O)N/N=C\c2ccc(O)c(OC)c2)c1 | 12.5 µg/mL (≈ 33 µM) | 6.25 µg/mL (≈ 16.5 µM) | 12.5 µg/mL (≈ 33 µM) | 12.5 µg/mL (≈ 33 µM) | 6.25 µg/mL (≈ 16.5 µM) |  |  |  |  |  |  |  |  | 
24 | COc1ccc(Br)c(C(=O)N/N=C\c2ccccc2Cl)c1 | 6.25 µg/mL (≈ 17 µM) | 6.25 µg/mL (≈ 17 µM) | 6.25 µg/mL (≈ 17 µM) | 12.5 µg/mL (≈ 34 µM) | 6.25 µg/mL (≈ 17 µM) |  |  |  |  |  |  |  |  | 
25 | OC(Cn1cncn1)(Cn1cncn1)c1ccc(F)cc1F [FLUCONAZOLE] | 8 µg/mL (≈ 26.1 µM) |  |  |  |  |  |  |  |  |  |  |  |  | 
26 | COc1ccc(Br)c(C(=O)N/N=C\c2ccc(C)cc2)c1 | 6.25 µg/mL (≈ 18 µM) | 12.5 µg/mL (≈ 36 µM) | 12.5 µg/mL (≈ 36 µM) | 12.5 µg/mL (≈ 36 µM) | 6.25 µg/mL (≈ 18 µM) |  |  |  |  |  |  |  |  | 
27 | COc1ccc(Br)c(C(=O)N/N=C\c2cccc(Cl)c2)c1 | 6.25 µg/mL (≈ 17 µM) | 12.5 µg/mL (≈ 34 µM) | 6.25 µg/mL (≈ 17 µM) | 25 µg/mL (≈ 68 µM) | 12.5 µg/mL (≈ 34 µM) |  |  |  |  |  |  |  |  | 
